Measured values published in publication PMC12266337 (Biochemistry, 2025).
Where a SMILES comes first, the peptide text is derived from it. Where no end group is shown, it is not given here. [ ]: non-standard residue; d: D form.

Experiments:
[1] = molecular target: T1, ComD receptor (Streptococcus constellatus, UniProt O33616); experiment: Luciferase reporter activation; type: cell-based; conditions: for QS activation (result in words): ΔcomC PcomX::luc reporter, agonism screening
[2] = molecular target: T1, ComD receptor; type: cell-based

Compound	EC50 [1] [nM]	further results
CC[C@H](C)[C@H](NC(=O)[C@H](CCCNC(=N)N)NC(=O)[C@H](CO)NC(=O)[C@H](N)CC(=O)O)C(=O)N[C@@H](CCCNC(=N)N)C(=O)N[C@@H](CCSC)C(=O)NCC(=O)N[C@@H](Cc1ccccc1)C(=O)N[C@@H](CC(=O)O)C(=O)N[C@@H](Cc1ccccc1)C(=O)N[C@@H](CO)C(=O)N[C@@H](CCCCN)C(=O)N[C@@H](CC(C)C)C(=O)N[C@@H](Cc1ccccc1)C(=O)NCC(=O)N[C@@H](CCCCN)C(=O)O [CSP-d1] (H-[dD]SRIRMGFDFSKLFGK-OH)	9.7	
CC[C@H](C)[C@H](NC(=O)[C@H](CCCNC(=N)N)NC(=O)[C@H](CO)NC(=O)[C@@H](N)CC(=O)O)C(=O)N[C@@H](CCCNC(=N)N)C(=O)N[C@@H](CCSC)C(=O)NCC(=O)N[C@@H](Cc1ccccc1)C(=O)N[C@@H](CC(=O)O)C(=O)N[C@@H](Cc1ccccc1)C(=O)N[C@@H](CO)C(=O)N[C@@H](CCCCN)C(=O)N[C@@H](CC(C)C)C(=O)N[C@H](Cc1ccccc1)C(=O)NCC(=O)N[C@@H](CCCCN)C(=O)O [CSP-f14] (H-DSRIRMGFDFSKL[dF]GK-OH)	2	
CC[C@@H](C)[C@@H](NC(=O)[C@H](CCCNC(=N)N)NC(=O)[C@H](CO)NC(=O)[C@@H](N)CC(=O)O)C(=O)N[C@@H](CCCNC(=N)N)C(=O)N[C@@H](CCSC)C(=O)NCC(=O)N[C@@H](Cc1ccccc1)C(=O)N[C@@H](CC(=O)O)C(=O)N[C@@H](Cc1ccccc1)C(=O)N[C@@H](CO)C(=O)N[C@@H](CCCCN)C(=O)N[C@@H](CC(C)C)C(=O)N[C@@H](Cc1ccccc1)C(=O)NCC(=O)N[C@@H](CCCCN)C(=O)O [CSP-i4] (H-DSR[dI]RMGFDFSKLFGK-OH)	25	
CC[C@H](C)[C@H](NC(=O)[C@H](CCCNC(=N)N)NC(=O)[C@H](CO)NC(=O)[C@@H](N)CC(=O)O)C(=O)N[C@@H](CCCNC(=N)N)C(=O)N[C@@H](CCSC)C(=O)NCC(=O)N[C@@H](Cc1ccccc1)C(=O)N[C@@H](CC(=O)O)C(=O)N[C@@H](Cc1ccccc1)C(=O)N[C@@H](CO)C(=O)N[C@H](CCCCN)C(=O)N[C@@H](CC(C)C)C(=O)N[C@@H](Cc1ccccc1)C(=O)NCC(=O)N[C@@H](CCCCN)C(=O)O [CSP-k12] (H-DSRIRMGFDFS[dK]LFGK-OH)	3.7	
CC[C@H](C)[C@H](NC(=O)[C@H](CCCNC(=N)N)NC(=O)[C@H](CO)NC(=O)[C@@H](N)CC(=O)O)C(=O)N[C@@H](CCCNC(=N)N)C(=O)N[C@@H](CCSC)C(=O)NCC(=O)N[C@@H](Cc1ccccc1)C(=O)N[C@@H](CC(=O)O)C(=O)N[C@@H](Cc1ccccc1)C(=O)N[C@@H](CO)C(=O)N[C@@H](CCCCN)C(=O)N[C@@H](CC(C)C)C(=O)N[C@@H](Cc1ccccc1)C(=O)NCC(=O)N[C@H](CCCCN)C(=O)O [CSP-k16] (H-DSRIRMGFDFSKLFG[dK]-OH)	1.7	
CC[C@H](C)[C@H](NC(=O)[C@H](CCCNC(=N)N)NC(=O)[C@H](CO)NC(=O)[C@@H](N)CC(=O)O)C(=O)N[C@@H](CCCNC(=N)N)C(=O)N[C@@H](CCSC)C(=O)NCC(=O)N[C@@H](Cc1ccccc1)C(=O)N[C@@H](CC(=O)O)C(=O)N[C@@H](Cc1ccccc1)C(=O)N[C@@H](CO)C(=O)N[C@@H](CCCCN)C(=O)N[C@H](CC(C)C)C(=O)N[C@@H](Cc1ccccc1)C(=O)NCC(=O)N[C@@H](CCCCN)C(=O)O [CSP-l13] (H-DSRIRMGFDFSK[dL]FGK-OH)	25	
CC[C@H](C)[C@H](NC(=O)[C@H](CCCNC(=N)N)NC(=O)[C@H](CO)NC(=O)[C@@H](N)CC(=O)O)C(=O)N[C@@H](CCCNC(=N)N)C(=O)N[C@H](CCSC)C(=O)NCC(=O)N[C@@H](Cc1ccccc1)C(=O)N[C@@H](CC(=O)O)C(=O)N[C@@H](Cc1ccccc1)C(=O)N[C@@H](CO)C(=O)N[C@@H](CCCCN)C(=O)N[C@@H](CC(C)C)C(=O)N[C@@H](Cc1ccccc1)C(=O)NCC(=O)N[C@@H](CCCCN)C(=O)O [CSP-m6] (H-DSRIR[dM]GFDFSKLFGK-OH)	35	
CC[C@H](C)[C@H](NC(=O)[C@@H](CCCNC(=N)N)NC(=O)[C@H](CO)NC(=O)[C@@H](N)CC(=O)O)C(=O)N[C@@H](CCCNC(=N)N)C(=O)N[C@@H](CCSC)C(=O)NCC(=O)N[C@@H](Cc1ccccc1)C(=O)N[C@@H](CC(=O)O)C(=O)N[C@@H](Cc1ccccc1)C(=O)N[C@@H](CO)C(=O)N[C@@H](CCCCN)C(=O)N[C@@H](CC(C)C)C(=O)N[C@@H](Cc1ccccc1)C(=O)NCC(=O)N[C@@H](CCCCN)C(=O)O [CSP-r3] (H-DS[dR]IRMGFDFSKLFGK-OH)	13	
CC[C@H](C)[C@H](NC(=O)[C@H](CCCNC(=N)N)NC(=O)[C@H](CO)NC(=O)[C@@H](N)CC(=O)O)C(=O)N[C@H](CCCNC(=N)N)C(=O)N[C@@H](CCSC)C(=O)NCC(=O)N[C@@H](Cc1ccccc1)C(=O)N[C@@H](CC(=O)O)C(=O)N[C@@H](Cc1ccccc1)C(=O)N[C@@H](CO)C(=O)N[C@@H](CCCCN)C(=O)N[C@@H](CC(C)C)C(=O)N[C@@H](Cc1ccccc1)C(=O)NCC(=O)N[C@@H](CCCCN)C(=O)O [CSP-r5] (H-DSRI[dR]MGFDFSKLFGK-OH)	47	
CC[C@H](C)[C@H](NC(=O)[C@H](CCCNC(=N)N)NC(=O)[C@@H](CO)NC(=O)[C@@H](N)CC(=O)O)C(=O)N[C@@H](CCCNC(=N)N)C(=O)N[C@@H](CCSC)C(=O)NCC(=O)N[C@@H](Cc1ccccc1)C(=O)N[C@@H](CC(=O)O)C(=O)N[C@@H](Cc1ccccc1)C(=O)N[C@@H](CO)C(=O)N[C@@H](CCCCN)C(=O)N[C@@H](CC(C)C)C(=O)N[C@@H](Cc1ccccc1)C(=O)NCC(=O)N[C@@H](CCCCN)C(=O)O [CSP-s2] (H-D[dS]RIRMGFDFSKLFGK-OH)	7.9	
ASRIRMGFDFSKLFGK [CSP D1A]		IC50 [2]: 120 nM
DARIRMGFDFSKLFGK [CSP S2A]	5.6	
DSAIRMGFDFSKLFGK [CSP R3A]		QS activation (result in words) [1]: complete loss of function
DSRARMGFDFSKLFGK [CSP I4A]	0.089	
DSRIAMGFDFSKLFGK [CSP R5A]	4.8	
DSRIRAGFDFSKLFGK [CSP M6A]	1.9	
DSRIRMGFDFSKLAGK [CSP F14A]		QS activation (result in words) [1]: abolished QS activation
DSRIRMGFDFSKLFGA [CSP K16A]	2.5	
DSRIRMGFDFSKLFGK [Native CSP, reference compound]	5.2	
